Where two headings read alike, the source gives them in different places.
Experiments:
[1] = test system: HeLa cells expressing mt-Keima and YFP-Parkin (HeLa MKYP); assay: Human mt-Keima mitophagy assay; type: cell-based; conditions: HeLa MKYP cells, 16 hrs with compound, then 1 uM FCCP/oligomycin for 6 hours, FACS, read-out: EC50 in HeLa mt-Keima Mitophagy Assay
Description: Briefly, HeLa cells expressing mt-Keima and YFP-Parkin (HeLa MKYP) were plated at 10,000 cells/well in 96 well plates along with compounds at various concentrations. Following 16 hrs of incubation, cells were treated with 1 uM FCCP/oligomycin for 6 hours, then analyzed via FACS for the presence of mitochondria in lysosomes (as determined by an emissions spectrum shift from the pH-sensitive mt-Keima tag).

[2] = test system: pS129 α-synuclein in mouse primary neurons treated with α-synuclein PFFs; assay: In vitro primary neuron α-synuclein pre-formed fibril (PFF) model; type: cell-based; conditions: increasing doses, Western blot of insoluble fraction of lysates
Description: Primary hippocampal neurons were derived following standard protocols, and treated with sonicated PFFs according to the methods in Volpicelli-Daley et al (Methods Mol Biol 2019). Following addition of PFFs or PBS on DIV7, Mitokinin compound or vehicle control was added on DIV9 and DIV12. At DIV14, cultures were harvested for biochemical analysis using either whole cell lysis buffer or fractionation buffer containing NP-40.
For whole cell lysates, cultures were collected in WC lysis buffer [100 mM Bicine pH 8.0, 0.27M Sucrose (Sigma S-1888, FW: 342.3), 1 mM EDTA, 1 mM EGTA, 5 mM Na4P2O7 (ESB422, MW 446.06 g/mol), 100 mM Tris pH 7.5, 1% Triton X-100, 1× Halt™ Protease and Phosphatase Inhibitor Cocktail, with Benzonase (1:1000)]. Samples were incubated on ice for 30 min, sonicated, and then cleared by centrifugation at 18,000 g for 20 min at 4° C. Supernatant protein concentration was determined by BCA assay, and samples were analyzed by western blot using commercially available antibodies. Neuronal health markers included NfL, total caspase-3, cleaved caspase-3, pS65 Ub, LC3, TUJ1, and actin.
For fractionation, cells were collected in NP-40 lysis buffer (containing 10 mM Tris-HCl, pH 7.4, 150 mM NaCl, 5 mM EDTA, 0.5% Nonidet P-40, 1× Halt™ Protease and Phosphatase Inhibitor Cocktail, with Benzonase (1:1000). Following differential centrifugation at 22,000 g for 20 min at 4° C., the NP-40 insoluble pellet was resuspended in SDS-Brain lysis buffer (containing 10 mM Tris-HCl, pH 7.4, 150 mM NaCl, 5 mM EDTA, 0.5% Nonidet P-40, 1% SDS, 0.5% sodium deoxycholate, 1× Halt™ Protease and Phosphatase Inhibitor Cocktail, with Benzonase (1:1000) and sonicated. Protein concentrations were determined using the BCA assay and samples were analyzed for pS129 α-synuclein and total α-synuclein levels by western blot.

SKOV3 cells [3] = assay: In vitro mitosafety (glucose/galactose) assay; conditions: highest mito-safe dose = highest concentration at which gal/glc>0.80 (IC20) in SKOV3 cells, divided by mt-Keima EC50
Description: (§1) Briefly, SKOV3 cells (ATCC HTB-77) were plated in DMEM (Corning 10-013-CV) medium containing 25 mM glucose or DMEM with no glucose (Gibco 11966-025) supplemented with 10 mM galactose at 9,000 cells/well in 96 well plates (Corning costar 3610). 24 hrs later, compounds, in DMSO, were added at various concentrations to a final 0.1% DMSO for all wells. […] After a 15 minute incubation cellular ATP levels were read out using a Promega GloMax® DiscoverMicroplate Reader.
(§2) The ratio of relative CellTiter-Glo values from cells grown in galactose to cells grown in glucose was determined (gal/glc ratio). The gal/glc ratio vs concentration is then graphed, and non-linear regression is used to find the highest concentration of MTK compound at which gal/glc>0.80 (the “highest mito-safe dose”, or IC20).

SKOV3 cells [4] = test system: SKOV3 cells
Description: as §1, §2

COCCO[C@H]1COc2ccccc2[C@@H]1Nc1ncnc2[nH]c(C3CC3)cc12 [EP-0041944, 6-cyclopropyl-N-[(3R,4S)-3-(2-methoxyethoxy)chroman-4-yl]-7H-pyrrolo[2,3-d]pyrimidin-4-amine]
EC50 ([1]; Homo sapiens): 130 nM
pS129 α-synuclein [2]: significantly reduces
Mito-Safety Index (highest mito-safe dose/mt-Keima EC50) (SKOV3 cells [3]): 45.94

CC(C)(F)CO[C@H]1COc2ccccc2[C@@H]1Nc1ncnc2[nH]c(C3CC3)cc12 [EP-0043180, 6-cyclopropyl-N-[(3R,4S)-3-(2-fluoro-2-methyl-propoxy)chroman-4-yl]-7H-pyrrolo[2,3-d]pyrimidin-4-amine]
EC50 ([1]; Homo sapiens): 149 nM
pS129 α-synuclein [2]: significantly reduces
Mito-Safety Index (highest mito-safe dose/mt-Keima EC50) (SKOV3 cells [3]): 168.02

N-[(3R,4,S)-3-(2-methoxyethoxy)chroman-4-yl]-6-(trifluoromethyl)-7H-pyrrolo[2,3-d]pyrimidin-4-amine [EP-0042319]
EC50 [1]: 246 nM
pS129 α-synuclein [2]: significantly reduces
Mito-Safety Index (highest mito-safe dose/mt-Keima EC50) (SKOV3 cells [4]): 74.75

Reference: patent US20240376111A1, “COMPOSITIONS AND METHODS OF USING THE SAME FOR TREATMENT OF NEURODEGENERATIVE AND MITOCHONDRIAL DISEASE” (Mitokinin, Inc., priority 2021, published 2024)
